Several values for one entry are separate records, joined by “and”; a condition that tells them apart may be missing. Equal values may be shown once.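 Where inhibition never reached the appropriate level, the endpoint shown equals the highest concentration tested. Otherwise, values were interpolated linearly from a five-concentration, 48-hour dose response in 96-well plates. Here, GI50 denotes the concentration required for 50% inhibition of growth. TGI is the concentration that stops growth completely.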 Where a SMILES comes first, the peptide text is derived from it. The star is where a group is joined. Cbz = O=C(OCc1ccccc1)*
Tests used:
Assay in all cases: DTP human tumour cell line panel, 48 h
[1] = tested on: HCC-2998 colon
[2] = tested on: HCT-15 colon
[3] = tested on: HOP-62 NSCLC
[4] = tested on: MDA-N
[5] = tested on: MOLT-4 leukemia
[6] = tested on: NCI-H226 lung
[7] = tested on: NCI-H23 lung
[8] = tested on: OVCAR-5 ovarian
[9] = tested on: SF-268 CNS
[10] = tested on: SK-MEL-5 melanoma
[11] = tested on: UO-31 renal
[12] = tested on: NCI-H460 lung

For `COC(=O)C1(C)CCCC2(C)C3CCC4CC3(C=C4CO)CCC12` (stereo not given), the TGI [1] was > 100 µM, the TGI [2] was 34.9 µM and the TGI [3] was > 100 µM. For the same molecule, the TGI [4] was > 100 µM, the TGI [5] was 76.4 µM and the TGI [6] was > 100 µM. For the same molecule, the TGI [7] was > 100 µM, the TGI [8] was > 100 µM and the TGI [9] was > 100 µM. The TGI [10] was > 100 µM and the TGI [11] was > 100 µM.

For `O=C(CN1CCOCC1)Nc1ccc2c(c1)C1Oc3ccccc3CC1CO2` (stereo not given), the TGI [1] was > 100 µM, the TGI [2] was > 100 µM and the TGI [3] was > 100 µM. For the same molecule, the TGI [4] was > 100 µM, the TGI [5] was > 100 µM and the TGI [6] was > 100 µM. For the same molecule, the TGI [7] was > 100 µM, the TGI [8] was > 100 µM and the TGI [9] was > 100 µM. For the same molecule, the TGI [10] was > 100 µM and the TGI [11] was > 100 µM.

With `C1=NCCNCCN=Cc2ccccc2OCc2cccc(n2)COc2ccccc21` the TGI [1] was > 55.5 µM, the TGI [2] was 24.8 µM and the TGI [3] was 54.8 µM. For the same molecule, the TGI [4] was 31.4 µM, the TGI [5] was > 82 µM and the TGI [6] was > 75.7 µM. The TGI [7] was > 52.9 µM, the TGI [12] was > 100 µM and the TGI [8] was > 100 µM. For the same molecule, the TGI [9] was > 96 µM, the TGI [10] was > 49.5 µM and the TGI [11] was > 30.7 µM.

With `CN(C)CCNC(=O)c1cc(-c2nccn2C)nc2ccccc12` the TGI [1] was > 100 µM, the TGI [2] was > 100 µM and the TGI [3] was > 100 µM. For the same molecule, the TGI [4] was > 100 µM, the TGI [5] was > 100 µM and the TGI [6] was > 100 µM. For the same molecule, the TGI [7] was > 100 µM, the TGI [12] was > 100 µM and the TGI [8] was > 100 µM. For the same molecule, the TGI [9] was > 100 µM, the TGI [10] was > 100 µM and the TGI [11] was > 100 µM.

In the case of `C/C1=C\CC/C(C)=C/C=C(/C(C)C)CC/C(C(=O)O)=C/CC1`, the TGI [1] is reported as > 100 µM, the TGI [2] is reported as > 100 µM and the TGI [3] is reported as > 100 µM. For the same molecule, the TGI [4] was > 100 µM, the TGI [5] was > 100 µM and the TGI [6] was > 100 µM. The TGI [7] was > 100 µM, the TGI [12] was > 100 µM and the TGI [8] was > 100 µM. For the same molecule, the TGI [9] was > 100 µM, the TGI [10] was > 100 µM and the TGI [11] was > 100 µM.

For `COC(=O)CC1(O)C(/C=C/c2ccccc2)C(C(=O)OC)C(=O)C(C(=O)OC)C1C(=O)OC` (stereo not given), the TGI [1] was > 100 µM, the TGI [2] was > 100 µM and the TGI [3] was > 100 µM. For the same molecule, the TGI [4] was > 100 µM, the TGI [5] was > 100 µM and the TGI [6] was > 100 µM. For the same molecule, the TGI [7] was > 100 µM, the TGI [12] was > 100 µM and the TGI [8] was > 100 µM. For the same molecule, the TGI [9] was > 100 µM, the TGI [10] was > 100 µM and the TGI [11] was > 100 µM.

With `C/C(=N\NC(=S)NNC(=S)N(C)c1ccccc1)c1ccccn1` the TGI [1] was > 100 µM, the TGI [2] was > 100 µM and the TGI [3] was > 100 µM. The TGI [4] was > 100 µM, the TGI [6] was 6.85 µM and the TGI [7] was > 100 µM. The TGI [12] was 29.5 µM, the TGI [8] was > 100 µM and the TGI [9] was > 89 µM. For the same molecule, the TGI [11] was 7.59 µM.

With `COc1cccc(C[C@H]2COC(=O)[C@]2(O)Cc2cccc(OC)c2)c1` the TGI [1] was > 100 µM, the TGI [2] was > 100 µM and the TGI [3] was > 100 µM. The TGI [4] was > 100 µM, the TGI [5] was > 100 µM and the TGI [6] was > 100 µM. For the same molecule, the TGI [7] was > 100 µM, the TGI [12] was > 100 µM and the TGI [8] was > 100 µM. The TGI [9] was 39.4 µM, the TGI [10] was > 100 µM and the TGI [11] was > 100 µM.

With `COC(=O)/C=C(/C(=O)OC)c1c(C)cc2c(C)cc(C)cc(C)c1-2` the TGI [1] was > 100 µM, the TGI [2] was 18.8 µM and the TGI [3] was 37.9 µM. The TGI [4] was 5.16 µM, the TGI [5] was > 100 µM and the TGI [6] was 61.6 µM. The TGI [7] was > 81.1 µM, the TGI [12] was > 69.9 µM and the TGI [8] was > 78.8 µM. For the same molecule, the TGI [9] was > 65.7 µM, the TGI [10] was 23.5 µM and the TGI [11] was 98.2 µM.

For `Cc1c(F)c(N)c2c(=O)cc(-c3ccc(NC(=O)[C@@H](N)CCCCN)c(F)c3)oc2c1F`, the GI50 [1] was 0.253 µM and 0.769 µM, the TGI [1] was 18.7 µM and 19.7 µM and the TGI [2] was 30.4 µM and 30.3 µM. For the same molecule, the TGI [3] was 27.3 µM and 24 µM, the TGI [4] was 28.7 µM and 24.6 µM and the GI50 [5] was 3.3 µM and 1.38 µM. For the same molecule, the TGI [5] was 15.1 µM and 5.79 µM, the GI50 [6] was 0.0446 µM and the TGI [6] was 15 µM. The GI50 [7] was 5.61 µM and 15.4 µM, the TGI [7] was 23.3 µM and 37.5 µM and the TGI [12] was 16.2 µM and 16.6 µM. For the same molecule, the GI50 [8] was 0.947 µM and 0.249 µM, the TGI [8] was 25.2 µM and 21.9 µM and the TGI [9] was 34.7 µM and 39.6 µM. The GI50 [10] was 13.2 µM and 2.63 µM, the TGI [10] was 27.4 µM and 27.2 µM and the TGI [11] was 33.7 µM and 22.1 µM.

In the case of `COc1ccc2c(c1)CCCN1Cc3ccccc3CC21` (stereo not given), the TGI [1] is reported as > 100 µM, the TGI [2] is reported as > 100 µM and the TGI [3] is reported as > 100 µM. The TGI [4] was > 100 µM, the TGI [5] was > 100 µM and the TGI [6] was > 100 µM. The TGI [7] was > 100 µM, the TGI [12] was > 100 µM and the TGI [8] was > 100 µM. The TGI [9] was > 100 µM, the TGI [10] was 56.7 µM and the TGI [11] was > 100 µM.

`COC(=O)/C(=C\c1cn(C(C)=O)c2ccccc12)P(=O)(OC)OC` showed a TGI [1] of 30.4 µM, a TGI [2] of 28.1 µM and a TGI [3] of 28.8 µM. The TGI [4] was 32.4 µM, the TGI [5] was > 100 µM and the TGI [6] was > 100 µM. The TGI [7] was 30.2 µM, the TGI [12] was 31.1 µM and the TGI [9] was 54 µM. For the same molecule, the TGI [10] was 26.5 µM and the TGI [11] was 26.1 µM.

`CSC(=S)OC1C(CO[Si](C)(C)C(C)(C)C)OC2OC(C)(C)OC21` (stereo not given) showed a TGI [1] of 49 µM, a TGI [2] of 35.3 µM and a TGI [3] of 34.4 µM. The TGI [4] was > 100 µM, the TGI [5] was 30.5 µM and the TGI [6] was 29.7 µM. It also gave a TGI [7] of 44.3 µM, a TGI [12] of 32.8 µM and a TGI [8] of 37.6 µM. For the same molecule, the TGI [9] was 45.9 µM, the TGI [10] was 30.4 µM and the TGI [11] was 32 µM.

For `O=C(NCC(C(=O)OCc1ccccc1)C(=O)OCc1ccccc1)OCc1ccccc1`, the TGI [1] was > 100 µM, the TGI [2] was > 100 µM and the TGI [3] was > 100 µM. The TGI [4] was > 100 µM, the TGI [5] was > 100 µM and the TGI [6] was > 100 µM. For the same molecule, the TGI [7] was > 100 µM, the TGI [12] was > 100 µM and the TGI [8] was > 100 µM. The TGI [9] was > 100 µM, the TGI [10] was > 100 µM and the TGI [11] was > 100 µM.

`CCOC(=O)C(CC(=O)OC)NC(=O)C(CC(=O)OC)NC(=O)C(CC(=O)OC)NC(=O)C(CC(=O)OC)NC(=O)OCc1ccccc1` (stereo not given) (Cbz-D(OMe)D(OMe)D(OMe)D(OMe)-OEt; configuration not given here) was tested, and the TGI [1] was > 100 µM, the TGI [2] was > 100 µM and the TGI [3] was > 100 µM. For the same molecule, the TGI [4] was > 100 µM, the TGI [5] was > 100 µM and the TGI [6] was > 100 µM. For the same molecule, the TGI [7] was > 100 µM, the TGI [12] was > 100 µM and the TGI [8] was > 100 µM. The TGI [10] was > 100 µM and the TGI [11] was > 100 µM.

For `O=CC1C[C@@H](N2C(=O)O[C@@H](c3ccccc3)[C@H]2c2ccccc2)[C@@H]1COCc1ccccc1` (stereo not given in full), the TGI [1] was 34.9 µM, the TGI [2] was 36.3 µM and the TGI [3] was 44.5 µM. For the same molecule, the TGI [4] was 38.1 µM, the TGI [5] was 84.4 µM and the TGI [6] was 42.2 µM. For the same molecule, the TGI [7] was 33.4 µM, the TGI [12] was 41.7 µM and the TGI [8] was 52.3 µM. For the same molecule, the TGI [9] was 37.1 µM, the TGI [10] was 29.1 µM and the TGI [11] was 29.3 µM.

With `Nc1cccc(C#Cc2cccc(C#Cc3cccc(N)n3)n2)n1` the TGI [1] was > 100 µM, the TGI [2] was > 100 µM and the TGI [3] was > 100 µM. The TGI [4] was > 100 µM, the TGI [5] was > 100 µM and the TGI [6] was > 100 µM. For the same molecule, the TGI [7] was > 100 µM, the TGI [12] was > 100 µM and the TGI [8] was > 100 µM. The TGI [9] was > 100 µM, the TGI [10] was > 100 µM and the TGI [11] was > 100 µM.

For `CN(C)c1ccc(N=Nc2cccc3ncccc23)cc1`, the TGI [1] was > 100 µM, the TGI [2] was > 100 µM and the TGI [3] was > 100 µM. The TGI [4] was > 100 µM, the TGI [5] was > 100 µM and the TGI [6] was > 100 µM. The TGI [7] was > 100 µM, the TGI [12] was > 100 µM and the TGI [9] was > 100 µM. For the same molecule, the TGI [10] was 61.2 µM and the TGI [11] was > 100 µM.

From PubChem BioAssay (NCI)
